Measurements taken from patent US20100190878A1, “POLYOLEFIN RESIN COMPOSITION AND FOAM MOLDED ARTICLE” (SUMITOMO CHEMICAL COMPANY, LIMITED, priority 2008, published 2010).
Where two headings read alike, the source gives them in different places.

Assay: acid dissociation constant (pKa) by conventional titration

Compound	pKa	pKa (acid dissociation constant of hindered amine light stabilizer)
CN1C(C)(C)CC(OC(=O)CC(C(=O)OC2CC(C)(C)N(C)C(C)(C)C2)C(CC(=O)OC2CC(C)(C)N(C)C(C)(C)C2)C(=O)OC2CC(C)(C)N(C)C(C)(C)C2)CC1(C)C [Example D-2, tetrakis(1,2,2,6,6-pentamethyl-4-piperidyl) 1,2,3,4-butanetetracarboxylate]	8.9	
CC1(C)CC(OC(=O)CCCCCCCCC(=O)OC2CC(C)(C)NC(C)(C)C2)CC(C)(C)N1 [Example D-3, Bis(2,2,6,6-tetramethyl-4-piperidyl) sebacate]	9	
CCCCCCCCON1C(C)(C)CC(OC(=O)CCCCCCCCC(=O)OC2CC(C)(C)N(OCCCCCCCC)C(C)(C)C2)CC1(C)C [Example D-4, Bis(1-octyloxy-2,2,6,6-tetramethylpiperidin-4-yl) sebacate]	4.4	
Condensate of N,N-bis(3-aminopropyl)ethylenediamine. 2,4-bis[N-butyl-N-(1,2,2,6,6-pentamethyl-4-pi peridyl)amino]-6-chloro-1,3,5-triazine [Example D-5]		9.2
